Measurements as given in PMC11481179, “Development and Application of Reversible and Irreversible Covalent Probes for Human and Mouse Cathepsin‐K Activity Detection, Revealing Nuclear Activity” (Advanced Science, 2024).

How the values were obtained:
U-87 MG cells = assay: Cell viability assay (methylene blue); assay type: cell-based, human; settings: 48 h incubation
Protocol: (§1) U-2 OS, U-87 MG, and enriched monocyte cells were grown at 370 C with 5% of CO2 in the
(§2) respective medium as described previously. Cells were seeded (1500 cells/well in 96 wells
(§3) plate) one day before the incubation with indicated probe or inhibitor at various concentrations.
(§4) After 48 h cells were fixed, and viability was measured by quantitative colorimetric assay using
(§5) methylene blue according to the procedure reported by Ben-Bassat et al. The data were
(§6) expressed as a percentage of control; data represent the mean of 2 experiments with triplicates
(§7) for each treatment (± standard deviation).
(§8) Fluorescent imaging of CTSK activity in lung tissue: Freshly resected human lung cancer and
(§9) normal lung tissues or mouse normal lung and primary lung cancer were embedded in OCT,
(§10) frozen in liquid nitrogen, and kept at - 80° C. Tissues were sectioned into 10 μm thick slices
(§11) using a cryostat (Leica). The slides were defrosted and washed with 1X PBS. Then the slides
(§12) were pretreated with DMSO or GD30 (5 µM) in buffer acetate for 1 h at 37° C. Afterward,
(§13) GD32 (0.75uM) or DMSO in buffer acetate were applied to the slides for 4 h at 37° C. Three
(§14) short washes with 1X PBS were done and the slides were left in 1X PBS for overnight
(§15) incubation at 4° C. The next day, slides were mounted with DAPI-Fluoromount-G® before
(§16) visualization by confocal microscopy. Olympus FV10i was used for human samples, whereas
(§17) Zeiss was used for mouse samples.
(§18) Details of the synthesis of the compounds
(§19) Synthesis of Compound (2)

U-2 OS cells = assay: Cell viability assay (methylene blue); assay type: cell-based, human; settings: 48 h incubation
Protocol: as §1, §2, §3, §4, §5, §6, §7, §8, §9, §10, §11, §12, §13, §14, §15, §16, §17, §18, §19

CTSB = CTSB (Homo sapiens, UniProt P07858); assay: In vitro kinetic evaluation of cathepsin inhibition, fluorescent substrate Z-FR-AMC; assay type: biochemical; settings: for mode of inhibition: CTSB; for Ki: CTSB 5 nM, pH 6, 37 °C
Protocol: (§20) used for TLC. Phosphate Buffer Saline (PBS) was purchased from Biological Industries (pH = […]
(§21) 7.4) and was used as a buffer system in all experiments if not indicated otherwise. […]
Recombinant human CTSB, CTSK, CTSL, and CTSS were supplied by B. Turk (J. […]
(§22) In vitro kinetic evaluation of labeling recombinant cathepsins:
(§23) Reactions were monitored for 30 min at 37° C in 96-well black flat-bottom microplates […]
(§24) (Greiner, Germany) using Tecan INFINITE M1000 pro plate reader (Tecan, Switzerland), […]
(§25) substrates Z-RR-AMC (CTSL) or Z-FR-AMC (CTSS, CTSB and CTSK), and excitation and […]
(§26) emission wavelengths of 370 and 460 nm, respectively. Cathepsin concentrations in the assay were 0.4 nM (CTSK) or 5 nM (CTSS, CTSB, and CTSL). The buffer was 100 mM Na2HPO4/NaH2PO4, 50 mM NaCl, 5 mM DTT, 0,1% Peg-6000, pH 6. For irreversible inhibitors, reaction data were fitted to the one-phase association formula in GraphPad Prism 9 software: Y=Y0 + (Plateau-Y0)*(1-exp(-K*X)) where in this case Y0 and Y represent fluorescence signal at times 0 and t, respectively, K represent the observed reaction rate kobs and X the inhibitor concentration. Inactivation rates at each inhibitor concentration were obtained by subtracting the inactivation observed in the control sample: kobs – kctrl. The maximal rate of inactivation (kinact) was obtained as the asymptote from equation Y = kinact*X/(Kiapp + X) where X is inhibitor concentration, Y is the observed inactivation rate for each X, and Kiapp is the apparent inhibition constant. Ki values were calculated from IC50 or from Kiapp using formulas Ki = Kiapp / (1 + Km/S) and IC50 = E0/2 + Kiapp, where Km stands for Michalis-Menten constant, S for substrate concentration and E0 for cathepsin concentration.
(§27) The highest inhibitor concentrations in the assay were 50 µM. Measurements were performed in several independent duplicates. Average values are presented with standard deviations. […]
µM) were pretreated with different concentrations of probes (GD32, GD36, GD37, or GD42)

CTSS = CTSS (Homo sapiens, UniProt P25774); assay: as above; assay type: biochemical; settings: for mode of inhibition: CTSS; for times less potent toward CTSS compared to CTSK: selectivity CTSK over CTSS
Protocol: as §20, §21
Recombinant human CTSB, CTSK, CTSL, and CTSS were supplied by B. Turk (J.
Stefan Institute).[1] […]
as §22, §23, §24, §25, §26, §27

Sequence of CTSS (P25774 115-331): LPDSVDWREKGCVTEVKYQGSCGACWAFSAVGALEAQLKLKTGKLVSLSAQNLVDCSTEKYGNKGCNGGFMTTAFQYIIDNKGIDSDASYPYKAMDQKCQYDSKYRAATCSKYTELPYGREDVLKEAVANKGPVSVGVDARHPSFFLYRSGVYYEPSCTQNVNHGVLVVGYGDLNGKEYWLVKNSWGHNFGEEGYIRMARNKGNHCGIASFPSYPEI

mode of inhibition (CTSB)	Ki (CTSB)	mode of inhibition (CTSS)	Ki (CTSS; CTSS 5 nM, pH 6, 37 °C)	kinact (CTSS; CTSS 5 nM, pH 6, 37 °C)	kinact/Ki (CTSS; CTSS 5 nM, pH 6, 37 °C)	times less potent toward CTSS compared to CTSK (CTSS)	Structure (SMILES)	cytotoxicity (U-87 MG cells)	cytotoxicity (U-2 OS cells)
–	–	–	–	–	–	–	C#CCNC(=O)[C@H](CC(C)C)N[C@@H](c1ccc(-c2ccc(S(=O)(=O)CCNC(=O)OC(C)(C)C)cc2)cc1)C(F)(F)F [GD30]	No toxicity	No toxicity
Reversible	9.4 µM	Irreversible	0.98 µM	0.0022 ± 0.00009 s⁻¹	2220 ± 300 M⁻¹ s⁻¹	115 times	C#CCNC(=O)[C@H](CC(C)C)N[C@@H](c1ccc(-c2ccc(S(=O)(=O)CCNC(=O)CCCCC[N+]3=C(/C=C/C=C/C=C4/N(C)c5ccc(S(=O)(=O)O)cc5C4(C)C)C(C)(C)c4cc(S(=O)(=O)O)ccc43)cc2)cc1)C(F)(F)F [GD32]	No toxicity	No toxicity
Reversible	5.9 µM	Reversible	0.06 µM	–	–	150 times	CC(C)C[C@H](N[C@@H](c1ccc(-c2ccc(S(=O)(=O)CCNC(=O)CCCCC[N+]3=C(/C=C/C=C/C=C4/N(C)c5ccc(S(=O)(=O)O)cc5C4(C)C)C(C)(C)c4cc(S(=O)(=O)O)ccc43)cc2)cc1)C(F)(F)F)C(=O)NC1(C#N)CC1 [GD37]	–	–
